Reference: patent US10959968B2, “Methods for treating c-Met-dependent cancers” (Board of Supervisors of Louisiana State University and …, priority 2016, dated 2021)

Columns and labels:
DU145 spheroids = assay: 3D spheroid growth, IncuCyte; type: cell-based, human; settings: 10 micromolar, 72 hours
Method: FIG. 9B: DU145 cells were grown in 10% FBS DMEM. Cells were collected after trypsinization and resuspended in phenol-red free DMEM with 10% FBS. Cells were labeled with Cell-Tracker Red (Life Technologies) for 5 minutes. After labeling cells were washed with PBS and transfer into 96-well Corning 7007 ULA round bottom plates at 1,000 cells/well in 100 μl phenol-red free media with 10% FBS and 5% Matrigel. […] Spheroids were grown at 37° C. and 5% CO2 in IncuCyte ZOOM (Essen Bioscience). Images were acquired every 4 h for a period of 72 h post-treatment and software analysis was design to identify the red object in the well. The data were expressed as fold increase in spheroids size at the end of the treatment using the “average red object area in the well” as determined by the IncuCyte software analysis. FIG. 9C: Visually representative spheroids that are quantitated in FIG. 9B.
To determine the effectiveness of these compounds under 3D growth conditions which more accurately predict effectiveness of new drugs in humans, DU145 spheroids were formed and allowed to grow for 72 hours. Images were recorded every 4 hours using the Incucyte platform. […] Compounds 9 and 10, at 10 micromolar reduced spheroid growth by about 50 percent (not shown).

MDA-MB231 spheroids = assay: 3D spheroid growth, IncuCyte; type: cell-based, human; settings: 10 micromolar, results not shown
Method: FIG. 9. (A). MDA-MB231 cells were grown in 10% FBS DMEM. Cells were collected after trypsinization and resuspended in phenol-red free DMEM with 10% FBS. Cells were labeled with CellTracker Red (Life Technologies) for 5 minutes. After labeling cells were washed with PBS and transfer into 96-well Corning 7007 ULA round bottom plates at 1,000 cells/well in 100 μl phenol-red free media with 10% FBS and 5% Matrigel. […] Spheroids were grown at 37° C. and 5% CO2 in IncuCyte ZOOM (Essen Bioscience). Images were acquired every 4 h for a period of 72 h post-treatment. The data were expressed as fold increase in spheroids size at the end of the treatment using the “average red object area in the well” as determined by the IncuCyte software analysis.
MDA-MB231 spheroids were all allowed to form and treated with compounds for up to 72 hours. Images were captured using the Incucyte platform.

[1] = system: DU145 human prostate cancer cells (pMet, pAkt, pErk); assay: Western blot of HGF-induced signaling in prostate cancer cells; type: cell-based; settings: 30 min pretreatment, 30 min HGF
Method: FIG. 4. A) Effect of HVS treatment on HGF-induced c-Met activation in human breast cancer cells using Western Blot analysis. Treatment with HVS caused a significant, dose-responsive inhibition of HGF-induced c-Met phosphorylation in MDA-MB-231, MCF-7, and BT-474 mammary tumor cells with no effect on total c-Met levels after treatment for 72 h, as compared to their respective vehicle-treated control groups. The visualization of β-tubulin was used as a loading control. (B) Effect of HVS on HGF-induced c-Met activation and its downstream mitogenic signaling in DU145 human prostate cancer cells, as compared to vehicle-treated control group, using Western Blot analysis. Cells were pre-treated for 30 minutes with either HVS at 0.1, 0.3, 1, and 5 μM or (−)-oleocanthal at 5, 10, and 20 μM doses in serum-free 0.4-media. 33 ng/mL HGF was then added for 30 minutes. Whole cell lysates were collected and assayed by Western Blot. The visualization of α-tubulin was used as a loading control. Representative Western Blots from each experiment are shown, N=3.
DU145 prostate tumor cells were pretreated for 30 minutes with the indicated compounds. Following pretreatment, cells were pulsed for thirty minutes with HGF, cell lysates were prepared and western blot analysis was performed to identify pMet, pAkt, pErk and tubulin.

Row | Structure (SMILES) | reduction of spheroid growth (DU145 spheroids) | effect on spheroid growth (MDA-MB231 spheroids) | pAkt signaling [1] | pMet induction [1] | HGF-induced (Met dependent) signaling [1]
1 | COc1cc(CCOC(=O)/C=C/c2cc(OC)c(O)c(OC)c2)ccc1N [Compound 9, (E)-4-amino-3-methoxyphenethyl 3-(4-hydroxy-3,5-dimethoxyphenyl)-acrylate] | about 50% | effective | did attenuate | did not lower | 
2 | COc1cc(/C=C/C(=O)OCCc2ccc(N)nc2)cc(OC)c1O [Compound 10, (E)-2-(6-aminopyridin-3-yl)ethyl 3-(4-hydroxy-3,5-dimethoxyphenyl)acrylate] | about 50% | effective |  |  | appeared to increase
